Assays:
Ctrl and L2AKO HSC = assay: Colony formation and serial re-plating assay with Ctrl and L2AKO HSC with supplemented media; format: cell-based, mouse
Text: Colony formation and serial re-plating assays. […] Colonies were scored after 10 to 12 days for mouse and 14 to 16 days for human cells using an Inverted Infinity and Phase Contrast Microscope (Fisher Scientific).

[1] = tested on: human CD34+ cells from old (>65 year) multi-myeloma patients; settings: CD34+ cells from old (>65 years) patients, ex vivo GLA
Text: Human hematopoietic stem and progenitor cells. Mobilized peripheral blood from multiple myeloma patients (59-71 years old) was enriched for mononuclear cells by density gradient centrifugation using Ficoll-Paque PLUS (GE Healthcare). Mono-nuclear cells were further enriched for CD34+ cells using immunomagnetic bead sorting (CD34 MicroBead Kit, human; Miltenyi Biotec) according to the manufacturer's protocol. The isolated CD34+cells were then used for LTC-IC or colony formation assays. LTC-IC assay. To assess LTC-IC frequencies, serial dilutions of FACS-sorted mouse Lin-Sca-l+c-Kit+ (LSK) cells or CD34+enriched human HSPCs were plated in MyeloCult [MUT] for mouse or MyeloCult [MUT] for human ([sequence] Technologies) mixed at 50:50 ratio with primary mouse stroma cell-conditioned medium or with HS5-conditioned medium for human cells. For each cell dose (1:10, 1:20, 1:40, 1:80, 1:160 for mouse LSK cells, 1:50, 1:100, 1:200, 1:400, 1:800 for human HSPC), 10 technical replicates were performed. […] For CFU-C counting, in the case of mouse samples, wells containing any type of colonies were scored as positive, while in the case of human samples, only wells with GEMM colonies were scored as positive. […]

HSC from old (22 m) mice = settings: daily injections of GLA (1mg/kg bw) for 7 weeks vs saline
Method: Mice. […] For the aging studies, 3-4 months (labeled as 4 m) and 25-30 m (labeled as >25 m) male mice were used in the young and old group, respectively. […] For GLA supplementation, old mice (>25 m) were injected with either saline or GLA (1mg/kg bw) for 40 days.
Colony formation and serial re-plating assays. Sorted mouse HSC (180 cells Lin−/cKit+/Scal+/CD48−/CD150+) or CD34-enriched human HSPC (5,000 cells) were plated into methylcellulose media ([sequence] Technologies, MethoCult M 3434 for mouse or MethoCult H4434 for human) according to the manufacturer's protocols. Colonies were scored after 10 to 12 days for mouse and 14 to 16 days for human cells using an Inverted Infinity and Phase Contrast Microscope (Fisher Scientific). […] Where indicated, media was supplemented with 100 nM FADS2 inhibitor SC-26196 (Sigma, PZ0176), 100 μM γ-linolenic fatty acid (GLA) (Sigma, L2378), 100 μtM NAC (Sigma, A7250) or 5 mM Methyl-pyruvate (Sigma, 371173).

[2] = tested on: Bead sorted CD34+ MNC from patients over 55 years of age; assay: FACS quantification of phenotypical HSC (HSPCs) in CD34+ MNC after 72 hours in HSC maintenance cultures; format: cell-based, human; settings: for long-term HSCs (LT-HSC; CD90+, CD49f+, CD34+, CD38−, Lin-): short term ex vivo culture vs vehicle (FIG. 17)
Method: FIG. 15. Representative FACS data and gating strategy. Bead sorted CD34+ MNC from patients over 55 years of age were treated with compounds 77.1, 77.43, 77.36, B13, B19 or vehicle control for 72 hours in HSC maintenance cultures. The experimental readout is quantification of phenotypical HSC (HSPCs) by FACS analysis. […] Results also identified a positive trend in HSC number from a HC derived specimen.

[3] = tested on: CMA in HSC from KFERQ-Dendra mice; assay: KFERQ-Dendra CMA reporter in HSC after in vivo activation; parameters: species or system mouse
Text: Mice. Hematopoietic system specific L2A KO mice were created by crossing C57BL/6 Vav-iCre mice with C57BL/6 L2Af/f mice. […] For the aging studies, 3-4 months (labeled as 4 m) and 25-30 m (labeled as >25 m) male mice were used in the young and old group, respectively. KFERQ-Dendra2 transgenic mice and KFERQ-Dendra mice defective in CMA (KFERQ-Dendra-L2AKO) were generated as described before. […] Young and old controls were similarly injected with tamoxifen. […] KFERQ-Dendra mice with extra copy of human L2A (KFERQ-Dendra-hL2AOE) were generated by breeding KFERQ-Dendra male mice with hL2AOE mice. […] Bone marrow was analyzed at the same times. Data is from the analysis 8 days post-injection, unless otherwise specified. For serial 5FU injections, mice were injected every week and 7 days post injection blood was taken and blood counts measured as above and dead mice and time of death were registered. […] The CMA activator (CA 20 mg/Kg b.w. per mouse day for 2 months) was administered orally in the form of sucralose gelatin agar pills.
Immunofluorescence staining. HSC or myeloid progenitor cells were directly sorted into 16-well slides pre-coated with Cell-Tak Cell Tissue Adhesive (Coming, 354240) and then fixed with 4% PFA for 15 min at room temperature (RT). For LAMP2A, LAMP1, total human LAMP2 and FADS2 staining, slides were washed with PBS and incubated with blocking buffer (5% goat serum/0.3% TrionX-100 in PBS) for 1 hour at RT and incubated ovemight at 4° C. with the first antibody diluted in 1% BSA/0.3% TritonX-100 followed by 40 min incubation at RT with fluorescence-conjugated secondary antibodies. Cells were washed 3 times with PBS and mounted with mounting medium with DAPI (Southern biotech). […] Oxidized proteins were detected with OxyICC Oxidized Protein Detection Kit from Sigma (S7350) and protein inclusions were detected with PROTEOSTAT Aggresome detection kit from ENZO (ENZ-51035) following manufacturer's instructions. […] For analysis of CMA activity using direct fluorescence and the KFERQ-Dendra CMA reporter, cells isolated from KFERQ-Dendra2 transgenic mice were fixed with 2% PFA for 5 min at RT and mounted for direct puncta counting or subjected for immunofluorescence as described above. Quantification was performed in TIFF converted images upon thresholding using the 3D object counter tool of Image J software (NIH). Average number of puncta per cell was determined for each of the cells in a field and at least 3 different fields per animal were counted. Where indicated, we also calculated the percentage of cells active for CMA, defined as those with at least two Dendra positive puncta. […] CMA flux was calculated as the increase in number of Dendra positive puncta upon leupeptin treatment. […]

N#CC(CCCN1CCN(/N=C/c2cccnc2)CC1)(c1ccccc1)c1ccccc1 [SC-26196]
self-renewal ability of control HSC (colony numbers) (Ctrl and L2AKO HSC; control cells, 100 nM FADS2 inhibitor SC-26196, first plating): sufficient to reduce self-renewal ability of control cells

CCCCC/C=C\C/C=C\C/C=C\CCCCC(=O)O [GLA, γ-linolenic acid]
self-renewal capacity of CMA-defective (L2AKO) HSC (colony numbers) (Ctrl and L2AKO HSC; L2AKO HSC, GLA supplemented media, ex vivo): restored their self-renewal capacity ex vivo | number of functional human stem cells in long-term cultures (LTC-IC) [1]: increased the number of functional human stem cells in long-term cultures | HSC function by colony formation (HSC from old (22 m) mice): improved HSC function as assessed by colony formation

Cc1nnc(-c2ccc(-c3cnc4cc(Cl)ccc4n3)cc2)[nH]1 [CA77.43, 6-chloro-2-(4-(5-methyl-4H-1,2,4-triazol-3-yl)phenyl)quinoxaline]
long-term HSCs (LT-HSC; CD90+, CD49f+, CD34+, CD38−, Lin-) [2]: significantly more long-term HSCs (LT-HSC) than vehicle

CC(=O)Nc1ccc(-c2cnc3cc(Cl)ccc3n2)cc1 [CA77.1, N-(4-(6-chloroquinoxalin-2-yl)phenyl)acetamide]
number of phenotypical HSCs by FACS ([2]; AML patient derived specimen, 72 hours vs vehicle): detectable and significant increase in HSCs | long-term HSCs (LT-HSC; CD90+, CD49f+, CD34+, CD38−, Lin-) [2]: significantly more long-term HSCs (LT-HSC) than vehicle

polyI:C
CMA activity in HSC (Dendra puncta per cell) ([3]; 48 hours after injection of PolyI:C vs vehicle): upregulated CMA

O=c1[nH]cc(F)c(=O)[nH]1 [5FU, 5-fluorouracil]
time of CMA returning to basal levels in HSC ([3]; after 5FU injection): 16 days | time of maximal CMA upregulation in HSC ([3]; after 5FU injection): 8 days | CMA activity in HSC (Dendra puncta per cell) ([3]; after single injection of 5FU): further upregulate CMA

Clc1ccc2nc(-c3ccc(Nc4cnccn4)cc3)cnc2c1 [CA77.36, N-(4-(6-chloroquinoxalin-2-yl)phenyl)pyrazin-2-amine]
long-term HSCs (LT-HSC; CD90+, CD49f+, CD34+, CD38−, Lin-) [2]: significantly more long-term HSCs (LT-HSC) than vehicle

CC(=O)N[C@@H](CS)C(=O)O [NAC, N-acetylcysteine]
long-term colony initiation abilities of L2AKO HSC (total colony numbers in 3rd plating) (Ctrl and L2AKO HSC; L2AKO HSC, NAC from the 1st plating): restored their ex vivo long-term colony initiation abilities

Reference: patent US20240156872A1, “Use of Chaperone-Mediated Autophagy Activators For Treating Or Preventing Blood Cancers And Myelodysplastic Syndromes And Enriching Hematopoietic Stem Cell Populations” (ALBERT EINSTEIN COLLEGE OF MEDICINE, priority 2021, published 2024)
